Data set [1] can be described thus: Partition coefficient (logP). It counts as physicochemical. The following applies: octanol/water.
In data set [2] the test system is MT4. Description: Cytotoxicity was evaluated against uninfected MT-4 cells. It counts as functional. The following applies: Homo sapiens.
The test system of data set [3] is MT4. Description: Inhibitory activity against syncytia formation in HIV-infected MT-4 cells was evaluated; Inactive. It counts as functional, cell-based, Homo sapiens.
For data set [4], the system named is MT4. Description: Inhibitory activity against syncytia formation in HIV-infected MT-4 cells was evaluated. It counts as functional, cell-based. The following applies: Homo sapiens.
Data set [5] concerns MT4. Description: Inhibitory activity against syncytia formation in HIV-infected MT-4 cells was evaluated; 1-10 uM. The conditions noted are these: Homo sapiens. It counts as functional, cell-based.

Our source for the logP, CC50 and IC50 values is ChEMBL document CHEMBL1130888, “Synthesis and anti-HIV activities of symmetrical N1,N3-dibenzyl-2-hydroxy-propane derivatives” (Bioorg Med Chem Lett, 1998).

The term logP denotes a log measure of how a compound divides between an organic and an aqueous phase. As a reminder, the CC50 is the concentration giving 50% cytotoxicity. A low value points to greater toxicity to the cells. The IC50 is the concentration that inhibits the measured activity by half.

`O=C(OCC1CCCCO1)N(Cc1ccccc1)CC(O)CN(Cc1ccccc1)C(=O)OCC1CCCCO1` (stereo unspecified): the logP in data set [1] (read-out: logP) was 4.07. In the data set on MT4 [2], this compound yielded a CC50 of 50 µM. Further, the half-inhibitory concentration (IC50) result in the data set on MT4 [3] is reported as “Not Active”.

As for `O=C(OC1CCOC1)N(Cc1ccccc1)CC(O)CN(Cc1ccccc1)C(=O)OC1CCOC1` (stereo unspecified), the logP in data set [1] (read-out: logP) amounted to 2.48. Further, in the data set with MT4 [2], half-maximal cytotoxicity (CC50) was put at 50 µM. In addition, the IC50 result in the data set with MT4 [3] is “Not Active”.

With `O=C(NCc1ccccc1)N(Cc1ccccc1)CC(O)CN(Cc1ccccc1)C(=O)NCc1ccccc1`, half-maximal inhibition with MT4 [4] (IC50) was put at 0.1 µM. The log partition coefficient (logP) in data set [1] (read-out: logP) came to 5.12. The half-maximal cytotoxic concentration (CC50) in the data set with MT4 [2] is > 100 µM.

For the compound `CC(C)(C)NC(=O)N(Cc1ccccc1)CC(O)CN(Cc1ccccc1)C(=O)NC(C)(C)C`, in the data set on MT4 [4], the IC50 was 1 µM. Further, the logP in data set [1] (read-out: logP) came out at 4.12. The CC50 in the data set with MT4 [2] is > 100 µM.

The compound `CC(C)(C)OC(=O)N(Cc1ccccc1)CC(O)CN(Cc1ccccc1)C(=O)OC(C)(C)C` came in with an IC50 with MT4 [5] of 1 µM. Besides, in data set [1] (read-out: logP), the logP was 5.39. In the data set with MT4 [2], the CC50 was > 100 µM.

For `CCCCCCCCOC(=O)N(Cc1ccccc1)CC(O)CN(Cc1ccccc1)C(=O)OCCCCCCCC`, in the data set with MT4 [4], half-maximal inhibition (IC50) required 10 µM. The logP in data set [1] came to 10.35. Besides, in the data set with MT4 [2], the 50% cytotoxic concentration (CC50) worked out at 50 µM.

As to `O=C(OCC1CCCO1)N(Cc1ccccc1)CC(O)CN(Cc1ccccc1)C(=O)OCC1CCCO1` (stereo unspecified), the log partition coefficient (logP) in data set [1] (read-out: logP) was determined as 2.94. In the data set with MT4 [2], this compound registered a CC50 of 50 µM. The IC50 result in the data set on MT4 [3] is “Not Active”.

In the case of `CC(C)COC(=O)N(Cc1ccccc1)CC(O)CN(Cc1ccccc1)C(=O)OCC(C)C`, in the data set on MT4 [4], inhibition was half-maximal at 1 µM (IC50). Besides, the logP in data set [1] (read-out: logP) is 5.75. For the same compound, in the data set on MT4 [2], half-maximal cytotoxicity (CC50) was put at 100 µM.

`CN(C(=O)N(Cc1ccccc1)CC(O)CN(Cc1ccccc1)C(=O)N(C)c1ccccc1)c1ccccc1` registered an IC50 with MT4 [4] of 1 µM. Also, the logP in data set [1] (read-out: logP) is 7.06. Also, in the data set with MT4 [2], the CC50 is > 100 µM.

For the compound `O=C(OCc1ccccc1)N(Cc1ccccc1)CC(O)CN(Cc1ccccc1)C(=O)OCc1ccccc1`, the half-maximal inhibitory concentration (IC50) in the data set on MT4 [4] is < 0.1 µM. Also, the lipophilicity (logP) in data set [1] (read-out: logP) came to 6.48. This compound also returned a half-maximal cytotoxic concentration (CC50) in the data set with MT4 [2] of 10 µM.

With `O=C(N1CCOCC1)N(Cc1ccccc1)CC(O)CN(Cc1ccccc1)C(=O)N1CCOCC1`, the logP in data set [1] (read-out: logP) stood at 0.04. Also, the CC50 in the data set on MT4 [2] is 100 µM. Moreover, the IC50 result in the data set on MT4 [3] is recorded as “Not Active”.

Consider `CCOC(=O)N(Cc1ccccc1)CC(O)CN(Cc1ccccc1)C(=O)OCC`, for which the log partition coefficient (logP) in data set [1] (read-out: logP) is 3.99. The compound further gave a CC50 with MT4 [2] of 50 µM. The IC50 result in the data set on MT4 [3] was “Not Active”.
